In patent US20230026163A1, “ANTICANCER COMPOUND AND MEDICAL USE THEREOF” (ASCENTAWITS PHARMACEUTICALS, LTD., priority 2019, published 2023):

Key:
AA8 cell line = assay: Cytotoxicity on AA8 cell line (2 hours exposure, AlamarBlue); type: cell-based, Chinese hamster; details: Cricetulus griseus, CHO-AA8; AA8, 2 hours exposure, then 70 hours, normoxic
CYP450R enzyme = biological target: T1, CYP450R enzyme (Homo sapiens, UniProt P16435); assay: Hypoxia-dependent reduction experiment with NADPH and CYP450R; type: biochemical; details: in the presence of NADPH and CYP450R enzymes
T1 sequence (P16435 1-677): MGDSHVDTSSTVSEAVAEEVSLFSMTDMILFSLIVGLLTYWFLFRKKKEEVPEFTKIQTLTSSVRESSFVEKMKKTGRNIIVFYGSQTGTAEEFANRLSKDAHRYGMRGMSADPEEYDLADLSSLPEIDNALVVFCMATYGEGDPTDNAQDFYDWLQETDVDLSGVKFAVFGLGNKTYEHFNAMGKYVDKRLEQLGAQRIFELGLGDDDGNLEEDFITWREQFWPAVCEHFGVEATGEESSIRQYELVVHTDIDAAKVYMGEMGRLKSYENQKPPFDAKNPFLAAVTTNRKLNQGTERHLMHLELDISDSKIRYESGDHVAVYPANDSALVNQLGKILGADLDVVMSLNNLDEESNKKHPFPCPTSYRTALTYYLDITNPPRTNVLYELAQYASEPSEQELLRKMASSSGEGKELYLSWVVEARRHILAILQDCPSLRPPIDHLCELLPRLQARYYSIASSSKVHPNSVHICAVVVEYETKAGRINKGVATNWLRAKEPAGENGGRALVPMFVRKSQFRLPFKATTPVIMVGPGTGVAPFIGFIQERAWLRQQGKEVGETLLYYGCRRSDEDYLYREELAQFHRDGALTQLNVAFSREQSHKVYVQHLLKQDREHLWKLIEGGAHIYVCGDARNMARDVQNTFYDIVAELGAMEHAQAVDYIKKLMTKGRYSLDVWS
Description: Ingredients were added to each tube without NADPH. Next, 50 μL of the condition B samples were transferred into 100 μL of acetonitrile (T=0). For the samples to be tested under hypoxia condition, the tubes were placed in a hypoxia chamber (BACTRON anaerobic/environmental chamber). The reactions were initiated by adding NADPH to tube A and tube C. Then, the samples with NADPH were placed at 37° C. For the samples to be tested in air condition, the tubes were placed in a hot plate at 37° C. After 30 minutes and 2 hours of incubation, 50 μL of samples were taken from each tube and mixed with 100 μL of acetonitrile. All tubes were spun to remove any protein precipitate and placed in HPLC vials for analysis. The results were compared with the standard curve of the authentic standard. The specific composition of the reagents in each sample reaction tube was shown as follow.
The drugs relative to the initial amount of the test drug (TH-302, compound 01) of the 3 different sample reaction tubes of A/B/C that have been reacted for different times (0/30 min/120 min). The results of adding different concentrations of human NADPH coenzyme were shown in FIG. 3 and FIG. 4, respectively.

[1] = Hepatomicrosome stability, dog; details: for Remaining percentage after 30 minutes: Dog, 2 μM
Description: (§1) 1a) With NADPH: 10 μL of 20 mg/mL of hepatomicrosome and 40 μL of 10 mM of NADPH were added to medium. The final concentrations of hepatomicrosome and NADPH were 0.5 mg/mL and 1 mM, respectively.
(§2) 1b) Without NADPH: 10 μL of 20 mg/mL hepatomicrosome and 40 μL of ultra-pure H2O were added to medium. The final concentration of hepatomicrosome was 0.5 mg/mL.
(§3) 3) 3) Aliquots of 50 μL from the reaction solutions at 0 minute and 30 minutes were taken. The reaction solutions were stopped by adding 4 volumes of cold acetonitrile and 4 internal standards (IS internal standard, 100 nM of Alprazolam, 200 nM of caffeine, 200 nM of Labetalol, and 2 μM of Ketoprofen) to stop the reaction solution. The samples were centrifuged at 3,220 g for 40 minutes. Aliquots of 100 μL of the supernatants were mixed with 100 μL of ultra-pure H2O. Then, the mixtures were used for LC-MS/MS analysis. All experiments were performed in duplicate. The test results were as follow.

[2] = Hepatomicrosome stability, rat; details: for Remaining percentage after 30 minutes: Rat, 2 μM
Description: as §1, §2, §3

NCI-H460 cells = assay: CDX model, subcutaneously transplanted human lung cancer; type: in vivo, BALB/c nude mice; details: for Relative tumor inhibition rate TGI (%): 31st day after inoculation
Description: BALB/c nude mice were subcutaneously inoculated with human lung cancer cells, NCI-H460 cells, to establish a subcutaneously transplanted tumor model of human lung cancer. The experiment was divided into a 20 mg/kg of the test drug compound 01 group, a 40 mg/kg of the test drug compound 01 group, and a vehicle control group with 10% of ethanol+10% of polyoxyethylene (35) castor oil, Cremophor EL+80% of 5% of glucose injection (pH7.4), and 6 mice in each group. […] The 40 mg/kg of the test drug compound 01 group was administered by tail vein injection, once every three weeks, for a total of 2 administrations, and observed for a week after the second administration. The 20 mg/kg of the test drug compound 01 group was administered by intraperitoneal injection once a day for 5 consecutive days and observed for 24 days. The efficacy was evaluated based on the relative tumor inhibition rate TGI (%). The safety evaluation was performed based on changes in animal body weight and mortality. The administered doses of compound 01 were determined based on the MTD experiment.
The tumor volume of each group of mice was measured on different days respectively, and the average value was obtained.

With O=[N+]([O-])c1ccc(C(OP(=O)(N2CC2)N2CC2)C(F)(F)F)c2ccccc12 (centres unmarked) [Compound 01] the IC50 (AA8 cell line) was 10.8 µM, the “Reduction ratio compared with TH-302” value (CYP450R enzyme) was “similar” and the Hypoxia-dependent reduction (CYP450R enzyme; 37° C.) was “showed the hypoxia-dependent reduction reaction”. For the same molecule, the “Remaining percentage after 30 minutes” value ([1]; with NADPH) was 31.16%, the “Remaining percentage after 30 minutes” value ([1]; without NADPH) was 101.62% and the “Stability in hepatomicrosomes (conclusion)” value ([1]; dog) was “unstable”. For the same molecule, the “Remaining percentage after 30 minutes” value ([2]; with NADPH) was 71.05%, the “Remaining percentage after 30 minutes” value ([2]; without NADPH) was 111.15% and the “Stability in hepatomicrosomes (conclusion)” value ([2]; rat) was “unstable”. The “Relative tumor inhibition rate TGI (%)” value (NCI-H460 cells; 20 mg/kg, QD×5×1 week, IP, Exp. group 8) was 76.22%, the “Relative tumor inhibition rate TGI (%)” value (NCI-H460 cells; 40 mg/kg, Q3W×2, IV, Exp. group 7) was 66.87% and the Tumor volume (NCI-H460 cells; day 7, Exp. group 7, 40 mg/kg, Q3W×2, IV) was 143.84 mm^3. It also gave a Tumor volume (NCI-H460 cells; day 7, Exp. group 8, 20 mg/kg, QD×5×1 week, IP) of 144.63 mm^3, a Tumor volume (NCI-H460 cells; day 10, Exp. group 7, 40 mg/kg, Q3W×2, IV) of 184.06 mm^3 and a Tumor volume (NCI-H460 cells; day 10, Exp. group 8, 20 mg/kg, QD×5×1 week, IP) of 173.09 mm^3. The Tumor volume (NCI-H460 cells; day 14, Exp. group 7, 40 mg/kg, Q3W×2, IV) was 153.75 mm^3, the Tumor volume (NCI-H460 cells; day 14, Exp. group 8, 20 mg/kg, QD×5×1 week, IP) was 152.99 mm^3 and the Tumor volume (NCI-H460 cells; day 17, Exp. group 7, 40 mg/kg, Q3W×2, IV) was 159.72 mm^3. It also gave a Tumor volume (NCI-H460 cells; day 17, Exp. group 8, 20 mg/kg, QD×5×1 week, IP) of 130.06 mm^3, a Tumor volume (NCI-H460 cells; day 21, Exp. group 7, 40 mg/kg, Q3W×2, IV) of 218.13 mm^3 and a Tumor volume (NCI-H460 cells; day 21, Exp. group 8, 20 mg/kg, QD×5×1 week, IP) of 129.66 mm^3. The Tumor volume (NCI-H460 cells; day 24, Exp. group 7, 40 mg/kg, Q3W×2, IV) was 291.07 mm^3, the Tumor volume (NCI-H460 cells; day 24, Exp. group 8, 20 mg/kg, QD×5×1 week, IP) was 164.63 mm^3 and the Tumor volume (NCI-H460 cells; day 28, Exp. group 7, 40 mg/kg, Q3W×2, IV) was 520.17 mm^3. The Tumor volume (NCI-H460 cells; day 28, Exp. group 8, 20 mg/kg, QD×5×1 week, IP) was 272.20 mm^3, the Tumor volume (NCI-H460 cells; day 31, Exp. group 7, 40 mg/kg, Q3W×2, IV) was 580.70 mm^3 and the Tumor volume (NCI-H460 cells; day 31, Exp. group 8, 20 mg/kg, QD×5×1 week, IP) was 447.50 mm^3. The Tumor volume (NCI-H460 cells; day 35, Exp. group 7, 40 mg/kg, Q3W×2, IV) was 447.32 mm^3 and the Tumor volume (NCI-H460 cells; day 35, Exp. group 8, 20 mg/kg, QD×5×1 week, IP) was 651.58 mm^3.
